Laboratory results as given in ChEMBL document CHEMBL4825668, “Discovery of Novel Pyrimidine-Based Capsid Assembly Modulators as Potent Anti-HBV Agents” (J Med Chem, 2021).
pIC50: −log10 of the molar value.

Tests used:
[1] = test system: Hepatitis B virus; experiment: Antiviral activity against Human hepatitis B virus in Huh-7 cells assessed as reduction in intracellular viral DNA level incubated for 36 hrs by qPCR analysis; format: functional, organism-based; conditions: Huh-7, 36 h
[2] = test system: Hepatitis B virus; experiment: Inhibition of HBV recombinant Cp149 expressed in Escherichia coli BL21 (DE3) assessed as inhibition of capsid assembly at 1 uM incubated for 1 hr by immune blotting analysis relative to control
[3] = test system: Hepatitis B virus; experiment: Inhibition of HBV recombinant Cp149 expressed in Escherichia coli BL21 (DE3) assessed as inhibition of capsid assembly at 0.1 uM incubated for 1 hr by immune blotting analysis relative to control
[4] = test system: Hepatitis B virus; experiment: Inhibition of HBV recombinant Cp149 expressed in Escherichia coli BL21 (DE3) assessed as inhibition of capsid assembly at 10 uM incubated for 1 hr by immune blotting analysis relative to control
[5] = Permeability of the compound at pH 7.4 by PAMPA; format: ADME
[6] = target: T1, CYP1A2 (Homo sapiens, UniProt P05177); experiment: Inhibition of human recombinant CYP1A2 using alpha-naphthoflavone […] at 10 uM by fluorometric assay; format: ADME
T1 sequence (P05177 whole entry): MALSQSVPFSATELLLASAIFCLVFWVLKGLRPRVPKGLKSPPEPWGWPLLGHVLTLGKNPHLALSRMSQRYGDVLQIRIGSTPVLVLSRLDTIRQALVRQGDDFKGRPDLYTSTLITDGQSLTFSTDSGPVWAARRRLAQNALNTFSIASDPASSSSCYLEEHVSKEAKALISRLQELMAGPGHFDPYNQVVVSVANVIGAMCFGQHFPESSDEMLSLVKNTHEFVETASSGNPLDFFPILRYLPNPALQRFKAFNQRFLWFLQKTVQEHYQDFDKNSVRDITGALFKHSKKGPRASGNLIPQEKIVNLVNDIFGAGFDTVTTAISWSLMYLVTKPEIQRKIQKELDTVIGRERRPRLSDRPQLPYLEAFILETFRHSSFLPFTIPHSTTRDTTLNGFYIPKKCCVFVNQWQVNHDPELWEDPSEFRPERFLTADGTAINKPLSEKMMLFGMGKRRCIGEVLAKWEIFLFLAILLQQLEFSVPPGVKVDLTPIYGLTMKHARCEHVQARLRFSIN

[7] = target: CYP2C19 (Homo sapiens, UniProt P33261); experiment: Inhibition of human recombinant CYP2C19 using amitriptyline […] at 10 uM by fluorometric assay; format: ADME
CYP2C19, sequence (P33261 whole entry): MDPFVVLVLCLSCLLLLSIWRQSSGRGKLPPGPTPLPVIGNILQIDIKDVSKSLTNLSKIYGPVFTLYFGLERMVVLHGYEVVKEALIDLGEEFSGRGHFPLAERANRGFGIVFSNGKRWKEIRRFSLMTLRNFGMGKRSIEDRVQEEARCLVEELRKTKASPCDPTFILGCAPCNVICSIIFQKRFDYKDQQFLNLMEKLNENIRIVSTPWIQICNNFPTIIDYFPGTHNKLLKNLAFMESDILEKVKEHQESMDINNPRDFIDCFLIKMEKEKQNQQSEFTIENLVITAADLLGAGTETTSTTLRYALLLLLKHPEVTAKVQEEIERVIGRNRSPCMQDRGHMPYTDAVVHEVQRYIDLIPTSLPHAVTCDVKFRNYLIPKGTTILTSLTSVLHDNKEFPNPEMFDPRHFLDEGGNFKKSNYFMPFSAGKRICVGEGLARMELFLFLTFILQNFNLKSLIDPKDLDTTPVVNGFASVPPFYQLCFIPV

[8] = target: CYP2C9 (Homo sapiens, UniProt P11712); experiment: Inhibition of human recombinant CYP2C9 using sulfaphenazole […] at 10 uM by fluorometric assay; format: ADME
CYP2C9, sequence (P11712 whole entry): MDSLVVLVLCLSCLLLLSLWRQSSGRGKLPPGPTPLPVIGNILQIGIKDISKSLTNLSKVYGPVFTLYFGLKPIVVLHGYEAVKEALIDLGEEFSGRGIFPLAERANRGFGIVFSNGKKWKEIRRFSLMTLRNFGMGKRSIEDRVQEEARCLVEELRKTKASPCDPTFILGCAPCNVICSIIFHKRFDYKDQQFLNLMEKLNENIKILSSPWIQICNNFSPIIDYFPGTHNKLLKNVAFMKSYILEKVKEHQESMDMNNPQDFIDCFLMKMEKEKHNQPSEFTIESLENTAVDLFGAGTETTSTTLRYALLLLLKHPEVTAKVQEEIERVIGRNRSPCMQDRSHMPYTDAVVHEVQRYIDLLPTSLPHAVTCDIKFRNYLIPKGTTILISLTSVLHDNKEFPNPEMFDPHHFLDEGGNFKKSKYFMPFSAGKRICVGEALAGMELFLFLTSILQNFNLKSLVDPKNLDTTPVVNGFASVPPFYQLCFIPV

[9] = target: hERG (KCNH2) (Homo sapiens, UniProt Q12809); experiment: Inhibition of human ERG at 40 uM incubated for 2 to 3 hrs by ligand binding assay
hERG (KCNH2), sequence (Q12809 whole entry): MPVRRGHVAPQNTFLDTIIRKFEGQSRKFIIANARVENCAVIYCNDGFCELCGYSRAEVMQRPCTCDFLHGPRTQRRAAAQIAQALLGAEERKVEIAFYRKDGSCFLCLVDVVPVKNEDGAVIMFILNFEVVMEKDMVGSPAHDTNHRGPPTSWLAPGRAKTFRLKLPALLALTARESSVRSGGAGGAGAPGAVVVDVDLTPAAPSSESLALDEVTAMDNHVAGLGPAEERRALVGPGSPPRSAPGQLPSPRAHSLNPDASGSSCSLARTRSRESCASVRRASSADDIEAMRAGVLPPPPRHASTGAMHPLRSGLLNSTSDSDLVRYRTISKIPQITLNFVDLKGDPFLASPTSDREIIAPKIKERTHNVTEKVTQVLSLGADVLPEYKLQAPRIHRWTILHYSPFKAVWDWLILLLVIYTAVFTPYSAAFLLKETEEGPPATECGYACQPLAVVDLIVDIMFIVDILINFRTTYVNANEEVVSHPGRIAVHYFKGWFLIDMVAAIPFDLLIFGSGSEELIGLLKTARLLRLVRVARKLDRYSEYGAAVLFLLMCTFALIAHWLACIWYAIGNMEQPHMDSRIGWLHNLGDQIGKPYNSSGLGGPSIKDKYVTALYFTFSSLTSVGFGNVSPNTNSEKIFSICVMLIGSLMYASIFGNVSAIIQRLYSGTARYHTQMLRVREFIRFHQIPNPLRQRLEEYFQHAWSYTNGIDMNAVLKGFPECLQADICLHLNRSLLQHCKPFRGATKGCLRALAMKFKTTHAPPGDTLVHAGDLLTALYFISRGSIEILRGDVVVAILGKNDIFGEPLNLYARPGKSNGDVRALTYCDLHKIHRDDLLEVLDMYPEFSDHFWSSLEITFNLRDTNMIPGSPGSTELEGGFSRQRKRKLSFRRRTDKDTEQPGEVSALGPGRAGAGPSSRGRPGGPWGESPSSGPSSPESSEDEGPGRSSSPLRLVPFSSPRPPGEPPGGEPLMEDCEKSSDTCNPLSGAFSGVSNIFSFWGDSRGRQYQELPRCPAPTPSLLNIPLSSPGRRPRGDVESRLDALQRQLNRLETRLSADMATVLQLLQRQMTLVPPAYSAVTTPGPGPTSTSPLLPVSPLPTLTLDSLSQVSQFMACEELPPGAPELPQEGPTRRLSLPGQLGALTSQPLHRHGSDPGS

[10] = Metabolic stability in mouse liver microsomes assessed as compound remaining at […] incubated for 30 mins by LC/MS/MS analysis; format: ADME, Microsome; conditions: read-out: Stabilty
[11] = Metabolic stability in rat liver microsomes assessed as compound remaining at […] incubated for 30 mins by LC/MS/MS analysis; format: ADME, Microsome; conditions: read-out: Stabilty
[12] = target: CYP2D6 (Homo sapiens, UniProt P10635); experiment: Inhibition of human recombinant CYP2D6 using quinidine […] at 10 uM by fluorometric assay; format: ADME
CYP2D6, sequence (P10635 whole entry): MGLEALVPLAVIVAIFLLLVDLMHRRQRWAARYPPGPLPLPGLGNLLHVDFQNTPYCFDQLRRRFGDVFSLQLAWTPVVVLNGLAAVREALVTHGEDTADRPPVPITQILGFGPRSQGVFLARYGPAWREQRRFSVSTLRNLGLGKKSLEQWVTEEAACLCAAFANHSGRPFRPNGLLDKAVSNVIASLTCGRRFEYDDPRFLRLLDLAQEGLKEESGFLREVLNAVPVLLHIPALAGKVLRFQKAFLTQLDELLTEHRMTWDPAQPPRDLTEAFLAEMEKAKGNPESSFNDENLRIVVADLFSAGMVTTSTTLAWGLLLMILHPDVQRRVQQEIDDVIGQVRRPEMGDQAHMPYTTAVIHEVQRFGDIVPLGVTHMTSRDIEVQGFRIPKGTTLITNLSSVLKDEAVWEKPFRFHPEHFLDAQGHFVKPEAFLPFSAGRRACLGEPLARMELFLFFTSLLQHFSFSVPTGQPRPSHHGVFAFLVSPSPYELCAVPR

[13] = target: CYP3A4 (Homo sapiens, UniProt P08684); experiment: Inhibition of human recombinant CYP3A4 using ketoconazole […] at 10 uM by fluorometric assay; format: ADME
CYP3A4, sequence (P08684 whole entry): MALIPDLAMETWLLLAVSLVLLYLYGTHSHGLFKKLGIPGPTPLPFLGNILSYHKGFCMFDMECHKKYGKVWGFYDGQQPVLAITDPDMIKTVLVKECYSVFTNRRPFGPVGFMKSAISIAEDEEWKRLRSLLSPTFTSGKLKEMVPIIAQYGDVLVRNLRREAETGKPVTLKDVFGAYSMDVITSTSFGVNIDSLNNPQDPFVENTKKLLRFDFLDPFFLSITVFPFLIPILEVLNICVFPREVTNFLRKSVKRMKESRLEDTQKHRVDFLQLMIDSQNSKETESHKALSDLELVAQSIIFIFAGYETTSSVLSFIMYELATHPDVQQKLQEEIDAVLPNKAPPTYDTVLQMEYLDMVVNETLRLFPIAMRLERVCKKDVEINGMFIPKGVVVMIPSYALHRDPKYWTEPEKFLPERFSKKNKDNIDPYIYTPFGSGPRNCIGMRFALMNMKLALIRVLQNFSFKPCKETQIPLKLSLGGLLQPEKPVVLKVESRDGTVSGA

[14] = Mutagenicity in Salmonella typhimurium in presence of S9 fraction by Ames test; format: toxicity, subcellular; conditions: salmonella enterica subsp. enterica serovar typhimurium
[15] = Metabolic stability in human liver microsomes assessed as compound remaining at […] incubated for 30 mins by LC/MS/MS analysis; format: ADME, Microsome; conditions: read-out: Stabilty

SMILES | pIC50 [1] | inhibition [2] [%] | inhibition [3] [%] | inhibition [4] [%] | also measured
COc1cncc(C(=O)NCCNc2cc(Nc3ccc(N4CCOCC4)cc3)nc([S+](C)[O-])n2)c1 (stereo not given) | < 5.00 | 83 | 43 | 78 | 
CS(=O)(=O)c1nc(Nc2ccc(F)c(Cl)c2)cc(N2CCNCC2)n1 [listing 1 of 2 here] |  | 90 | 47 |  | 
CS(=O)(=O)c1nc(Nc2ccc(F)c(Cl)c2)cc(N2CCNCC2)n1 [listing 2 of 2 here] | 6.72 |  |  |  | log(permeability) [5]: -5.37; inhibition at 10 µM [6]: 57.4%; inhibition at 10 µM [7]: 41.2%; inhibition at 10 µM [8]: 64.8%; inhibition at 40 µM [9]: 14%; remaining at 0.5 h [10]: > 99%; remaining at 0.5 h [11]: > 99%; inhibition at 10 µM [12]: 45.2%; inhibition at 10 µM [13]: 60.2%; Activity [14]: Non-Toxic; remaining at 0.5 h [15]: > 99%
COc1ncccc1C(=O)NCCNc1cc(Nc2ccc(Br)cc2)nc([S+](C)[O-])n1 (stereo not given) | 6.75 | 82 | 27 |  | 
COC(=O)C1=C(C)NC(c2ncc(F)cc2F)=N[C@H]1c1ccc(F)cc1Cl | 6.69 |  |  | 37 | 
COc1ncccc1C(=O)NCCNc1cc(Nc2ccc(N3CCOCC3)cc2)nc(SC)n1 | < 5.00 |  |  | 23 | remaining at 0.5 h [10]: 17.8%; remaining at 0.5 h [11]: 49%; remaining at 0.5 h [15]: 58.8%
CS(=O)(=O)c1nc(Nc2cc(F)c(F)c(F)c2)cc(NC2CCNCC2)n1 | 6.72 | 90 | 16 |  | log(permeability) [5]: <= -6; remaining at 0.5 h [10]: 98.6%; remaining at 0.5 h [11]: 98.2%
CCOC(=O)C1=C(CN2CCOCC2)NC(c2nccs2)=N[C@H]1c1ccc(F)cc1Br | 6.73 | 93 | 49 |  | 
CS(=O)(=O)c1nc(Nc2cc(F)c(F)c(F)c2)cc(Nc2cc(F)c(F)c(F)c2)n1 | 5.99 |  |  | 69 | remaining at 0.5 h [10]: 99.9%; remaining at 0.5 h [11]: 99.9%; remaining at 0.5 h [15]: 99.9%
COc1ncccc1C(=O)NCCNc1cc(Nc2ccc(Cl)cc2)nc([S+](C)[O-])n1 (stereo not given) | 6.52 | 80 | 27 |  | 
COc1ncccc1C(=O)NCCNc1cc(Nc2ccc(N3CCOCC3)cc2)nc([S+](C)[O-])n1 (stereo not given) | 6.40 |  |  | 95 | log(permeability) [5]: -5.47; inhibition at 10 µM [6]: 18.3%; inhibition at 10 µM [7]: 40.7%; inhibition at 10 µM [8]: 42.9%; remaining at 0.5 h [10]: 80.2%; remaining at 0.5 h [11]: 77.1%; inhibition at 10 µM [13]: 51.7%; remaining at 0.5 h [15]: 93.4%
CS(=O)(=O)c1nc(Nc2cc(F)c(F)c(F)c2)cc(NC2CCC(N)CC2)n1 (stereo not given) | 6.53 | 96 | 29 |  | 
CSc1nc(NCCNC(=O)c2cccnc2F)cc(Nc2ccc(N3CCOCC3)cc2)n1 |  |  |  | 0 | 
CS(=O)(=O)c1nc(Nc2ccc(F)c(Br)c2)cc(NC2CCC(N)CC2)n1 (stereo not given) | 6.32 | 98 | 10 |  | 
CSc1nc(NCCNC(=O)c2cccnc2Cl)cc(Nc2ccc(N3CCOCC3)cc2)n1 |  |  |  | 2 | 
CS(=O)(=O)c1nc(Nc2ccc(F)c(Cl)c2)cc(NC2CCNCC2)n1 | 6.70 | 95 | 59 |  | log(permeability) [5]: -5.46; remaining at 0.5 h [10]: 93.9%; remaining at 0.5 h [11]: 85.1%; remaining at 0.5 h [15]: 92.9%
CSc1nc(NCCNC(=O)c2cccc(Cl)n2)cc(Nc2ccc(N3CCOCC3)cc2)n1 |  |  |  | 0 | 
COc1ncccc1C(=O)NCCNc1cc(Nc2ccc(F)cc2)nc([S+](C)[O-])n1 (stereo not given) | 6.68 | 83 | 32 |  | 

SMILES | pIC50 [1] | inhibition [2] [%] | inhibition [3] [%] | inhibition [4] [%] | also measured
C[S+]([O-])c1nc(NCCNC(=O)c2cccnc2)cc(Nc2ccc(N3CCOCC3)cc2)n1 (stereo not given) | < 5.00 |  |  | 13 | 
CSc1nc(NCCNC(=O)c2cccnc2)cc(Nc2ccc(N3CCOCC3)cc2)n1 | < 5.00 |  |  | 43 | 
COc1ncccc1C(=O)NCCNc1cc(Nc2ccc(I)cc2)nc([S+](C)[O-])n1 (stereo not given) | < 5.00 |  |  | 37 | 
COc1ncccc1C(=O)NCCNc1cc(Nc2ccc(F)cc2Cl)nc([S+](C)[O-])n1 (stereo not given) | < 5.00 |  |  | 43 | 
CS(=O)(=O)c1nc(Nc2cc(F)c(F)c(F)c2)cc(N2CCNCC2)n1 | 6.69 | 92 | 39 |  | inhibition at 10 µM [6]: 23.6%; inhibition at 10 µM [7]: 93.4%; inhibition at 10 µM [8]: 85.2%; inhibition at 40 µM [9]: 48.7%; remaining at 0.5 h [10]: 99.8%; remaining at 0.5 h [11]: 87.9%; inhibition at 10 µM [12]: 5.76%; inhibition at 10 µM [13]: 52.1%; Activity [14]: Non-Toxic; remaining at 0.5 h [15]: 99.9%
COc1ncccc1C(=O)NCCNc1cc(Nc2ccccc2)nc([S+](C)[O-])n1 (stereo not given) | 6.32 | 83 | 14 |  | 
CSc1nc(NCCNC(=O)c2ncc(F)cc2F)cc(Nc2ccc(N3CCOCC3)cc2)n1 |  |  |  | 1 | 
COc1ncccc1C(=O)N1CCN(c2cc(Nc3ccc(N4CCOCC4)cc3)nc(SC)n2)CC1 | < 5.00 |  |  | 31 | 
CS(=O)(=O)c1nc(Nc2ccc(F)cc2)cc(Nc2ccc(F)cc2)n1 | 5.19 |  |  | 49 | remaining at 0.5 h [10]: 37.7%; remaining at 0.5 h [11]: 74.4%; remaining at 0.5 h [15]: 42.8%
COc1cncc(C(=O)NCCNc2cc(Nc3ccc(N4CCOCC4)cc3)nc(SC)n2)c1 | 5.07 |  |  | 37 | 
CSc1nc(NCCNC(=O)c2ccc(Cl)nc2Cl)cc(Nc2ccc(N3CCOCC3)cc2)n1 |  |  |  | 5 | 
COc1ncccc1C(=O)N1CCN(c2cc(Nc3ccc(N4CCOCC4)cc3)nc([S+](C)[O-])n2)CC1 (stereo not given) | < 5.00 |  |  | 33 | 
COc1ncccc1C(=O)NCCNc1cc(Nc2ccc(F)c(F)c2)nc([S+](C)[O-])n1 (stereo not given) | < 5.00 |  |  | 38 | 
CS(=O)(=O)c1nc(Nc2ccc(F)c(Br)c2)cc(N2CCNCC2)n1 | 6.26 | 98 | 13 |  | 
O=C1CC2(CCCC2)CC(=O)N1CCCCN1CCN(c2ncccn2)CC1 [BUSPIRONE] |  |  |  |  | remaining at 0.5 h [10]: 0.906%; remaining at 0.5 h [11]: 0.528%; remaining at 0.5 h [15]: 2.44%
CS(=O)(=O)c1nc(Nc2ccc(F)c(Cl)c2)cc(Nc2ccc(F)c(Cl)c2)n1 | 6.23 |  |  | 57 | remaining at 0.5 h [10]: 92.9%; remaining at 0.5 h [11]: 99.9%; remaining at 0.5 h [15]: 99.9%
CS(=O)(=O)c1nc(Nc2ccc(F)c(Br)c2)cc(NC2CCNCC2)n1 | 6.27 | 97 | 7 |  | 
COc1ncccc1C(=O)NCCNc1cc(Nc2ccc(N3CCOCC3)cc2)nc(S(C)(=O)=O)n1 | 6.70 | 86 | 49 |  | 
